Test results taken from patent US20230181482A1, “LIPIDS FOR DELIVERY OF NUCLEIC ACID SEGMENTS” (AstraZeneca AB, priority 2021, published 2023).
One block for each compound: values may come before it.

Key:
[1] = mRNA encapsulation efficiency of LNP formulations (Quant-it Ribogreen assay with Triton-X100); assay type: physicochemical; details: N/P ratio 3:1, DMPE-PEG2000
Description: (§1) A solution of eGFP mRNA (purchased from TriLink Biotechnologies) in citrate buffer was prepared by mixing mRNA dissolved in MilliQ-water, 100 mM citrate buffer (pH 3) and MilliQ-water to give a solution of 50 mM citrate. Lipid solution in ethanol (99.5%) was prepared with four different lipid components: ionizable lipid (see Table 1); cholesterol (Sigma-Aldrich); DSPC (distearoyl phosphatidyl choline, Avanti Polar Lipids Inc); and a polymer-conjugated lipid (see Table 1). The ratio of lipids in all experiments was ionizable lipid/cholesterol/DSPC/polymer-conjugated lipid (50/38.5/10/1.5 mol %). The total concentration of lipids in all experiments was 12.5 mM.
(§2) The mRNA and lipid solutions were mixed in a NanoAssemblr (Precision Nanosystems, Vancouver, BC, Canada) microfluidic mixing system at a mixing ratio of Aq:EtOH=3:1 and a constant flow rate of 12 mL/min. The mRNA in citrate buffer solution was prepared such that, at the time of mixing the ratio between the nitrogen atoms on the ionizable lipid and phosphorus atoms (N/P ratio) on the mRNA chain was either 3:1 or 6:1 (see Table 1).
The final mRNA concentration and encapsulation efficiency percentage (% EE) was measured by Quant-it Ribogreen Assay Kit (ThermoFischer Scientific Inc.) using Triton-X100 to disrupt the LNPs. The mRNA encapsulation efficiency was determined according to the following equation: […]

[2] = LNP particle size by dynamic light scattering (Zetasizer Nano ZS); assay type: physicochemical; details: N/P ratio 3:1, DMPE-PEG2000
Description: as §1, §2
The first 0.2-0.35 mL and the last 0.05-0.1 mL of the LNP suspension prepared were discarded while the rest of the volume was collected as the sample fraction. The size of the mRNA lipid nanoparticles was determined by dynamic light scattering measurements using a Zetasizer Nano ZS from Malvern Instruments Ltd, giving directly the z-average particle diameter. The number-weighted particle size distributions and averages were calculated using a particle refractive index of 1.45.

[3] = system: Female BALB/c mice; assay: eGFP expression in the liver at 24 hours after intravenous administration of LNP formulations to mouse (ELISA); assay type: in vivo; details: LNP N/P 3:1, DMPE-PEG2000
Source text: Female BALB/c mice were purchased (SPF (Beijing) Laboratory Animal Technology Co. Ltd.) and on arrival were caged in groups of 4 on corncob bedding, with normal diet and were provided tap drinking water ad libitum that was purified and autoclaved before being offered to the animal. The environment was maintained at a target temperature of […] and relative humidity of 40-80%, with a 12-hour light/dark cycle. Animals were acclimatised to the housing conditions for at least 7 days prior to any experimental procedures and were approximately 6-8 weeks of age at the start of dosing
Animals were assigned to respective groups such that the mean body weights for each treatment groups will be equal. N=4 for each treatment group.
Formulations 1, 3, 4, 5, and 6 from Example 58 were each dosed intravenously: Each mouse was removed from its cage and restrained, and then dosed with a slow IV bolus of a formulation in the lateral tail vein at a dose […] of 0.3 mg/kg.
All animals were sacrificed 24 hours after dosing and flowing blood sampling the liver for the animals dosed by the IV route and the liver and muscle at the dose site for the IM dosed animals were harvested for eGFP analysis by ELISA.
Additional LNP formulations were prepared according to the procedures described in Example 46. These formulations were tested using the same protocol as described herein. The results of eGFP expression in the liver at 24 hours after intravenous administration of the formulations were summarized in Tables 3, 4, 5 and 6 below.

SMILES: CCCCCCCCC(CCCCCCCC)OC(=O)CCCCCCCC(CCCCCCCC(=O)OCCC(C)CCCCCC)NC1CC2(COC2)C1 (stereo not shown) [Compound 42, 1-(heptadecan-9-yl) 17-(3-methylnonyl) 9-((2-oxaspiro[3.3]heptan-6-yl)amino)heptadecanedioate]
% EE ([1]; Table 5): 94%
<d>N (nm) ([2]; Table 5): 66 nm
<d>Z (nm) ([2]; Table 5): 84 nm
Liver eGFP protein (ng/g tissue) ([3]; Table 5, 0.3 mg/kg): 1868.2 ng/g tissue

SMILES: CCCCCC(CCCCC)CCOC(=O)CCCCCCCC(CCCCCCCC(=O)OCCC(CCCCC)CCCCC)NCC1CCCO1 (stereo not shown) [Compound 8, bis(3-pentyloctyl) 9-(((tetrahydrofuran-2-yl)methyl)amino)heptadecanedioate]
% EE ([1]; Table 3): 95%
<d>N (nm) ([2]; Table 3): 61 nm
<d>Z (nm) ([2]; Table 3): 76 nm
Liver eGFP protein (ng/g tissue) ([3]; Table 3, 0.3 mg/kg): 6124.2 ng/g tissue

SMILES: CCCCCCCCC(CCCCCCCC)OC(=O)CCCCCCC(CCCCCCC(=O)OC(CCCCCCCC)CCCCCCCC)NC1CC2(COC2)C1 [Compound 23, di(heptadecan-9-yl) 8-((2-oxaspiro[3.3]heptan-6-yl)amino)pentadecanedioate]
% EE ([1]; Table 4): 96%
<d>N (nm) ([2]; Table 4): 45 nm
<d>Z (nm) ([2]; Table 4): 62 nm
Liver eGFP protein (ng/g tissue) ([3]; Table 4, 0.3 mg/kg): 2318.8 ng/g tissue

SMILES: CCCCCCCCC(CCCCCCCC)OC(=O)CCCCCCC(CCCCCCC(=O)OCCCCCCCC(C)C)NC1CC2(COC2)C1 (stereo not shown) [Compound 26, 1-(heptadecan-9-yl) 15-(8-methylnonyl) 8-((2-oxaspiro[3.3]heptan-6-yl)amino)pentadecanedioate]
% EE ([1]; Table 4): 94%
<d>N (nm) ([2]; Table 4): 50 nm
<d>Z (nm) ([2]; Table 4): 75 nm
Liver eGFP protein (ng/g tissue) ([3]; Table 4, 0.3 mg/kg): 824.8 ng/g tissue

SMILES: CCCCCCCCC(CC)OC(=O)CCCCCCCC(CCCCCCCC(=O)OC(CCCCCCCC)CCCCCCCC)NCC1COC1 (stereo not shown) [Compound 41, 1-(heptadecan-9-yl) 17-(undecan-3-yl) 9-((oxetan-3-ylmethyl)amino)heptadecanedioate]
% EE ([1]; Table 5): 98%
<d>N (nm) ([2]; Table 5): 54 nm
<d>Z (nm) ([2]; Table 5): 69 nm
Liver eGFP protein (ng/g tissue) ([3]; Table 5, 0.3 mg/kg): 7390.2 ng/g tissue

SMILES: CCCCCCCCC(CCCCCCCC)OC(=O)CCCCCCCC(CCCCCCCC(=O)OCC(C)CCCCCCC)NCC1CCOC1 (stereo not shown) [Compound 21, 1-(heptadecan-9-yl) 17-(2-methylnonyl) 9-(((tetrahydrofuran-3-yl)methyl)amino)heptadecanedioate]
% EE ([1]; Table 5): 97%
<d>N (nm) ([2]; Table 5): 57 nm
<d>Z (nm) ([2]; Table 5): 72 nm
Liver eGFP protein (ng/g tissue) ([3]; Table 5, 0.3 mg/kg): 4103.6 ng/g tissue

SMILES: CCCCCC(CCCCC)CCOC(=O)CCCCCCCC(CCCCCCCC(=O)OCCC(CCCCC)CCCCC)NCC1COCCO1 (stereo not shown) [Compound 9, bis(3-pentyloctyl) 9-(((1,4-dioxan-2-yl)methyl)amino)heptadecanedioate]
% EE ([1]; Table 3): 93%
<d>N (nm) ([2]; Table 3): 61 nm
<d>Z (nm) ([2]; Table 3): 81 nm
Liver eGFP protein (ng/g tissue) ([3]; Table 3, 0.3 mg/kg): 3160.9 ng/g tissue

SMILES: CCCCCCCCC(CCCCCCCC)OC(=O)CCCCCCCC(CCCCCCCC(=O)OC(CCCCCCCC)CCCCCCCC)NC1CC2(COC2)C1 [Compound 31, Di(heptadecan-9-yl) 9-((2-oxaspiro[3.3]heptan-6-yl)amino)heptadecanedioate]
% EE ([1]; Table 4): 94%
<d>N (nm) ([2]; Table 4): 47 nm
<d>Z (nm) ([2]; Table 4): 62 nm
Liver eGFP protein (ng/g tissue) ([3]; Table 4, 0.3 mg/kg): 1319.3 ng/g tissue

SMILES: CCCCCC(CCCCC)CCOC(=O)CCCCCCCC(CCCCCCCC(=O)OCCC(CCCCC)CCCCC)NCC1CCCCO1 (stereo not shown) [Compound 6, bis(3-pentyloctyl) 9-(((tetrahydro-2H-pyran-2-yl)methyl)amino)heptadecanedioate]
% EE ([1]; Table 3): 87%
<d>N (nm) ([2]; Table 3): 59 nm
<d>Z (nm) ([2]; Table 3): 77 nm
Liver eGFP protein (ng/g tissue) ([3]; Table 3, 0.3 mg/kg): 3621.3 ng/g tissue

SMILES: CCCCCC(CCCCC)CCOC(=O)CCCCCC(CCCCCC(=O)OCCC(CCCCC)CCCCC)NC1CC2(COC2)C1 [Compound 13, bis(3-pentyloctyl) 7-((2-oxaspiro[3.3]heptan-6-yl)amino)tridecanedioate]
% EE ([1]; Table 3): 93%
<d>N (nm) ([2]; Table 3): 49 nm
<d>Z (nm) ([2]; Table 3): 66 nm
Liver eGFP protein (ng/g tissue) ([3]; Table 3, 0.3 mg/kg): 8798.8 ng/g tissue

SMILES: CCCCCCCCC(CC)OC(=O)CCCCCCCC(CCCCCCCC(=O)OC(CCCCCCCC)CCCCCCCC)NCC1CCOC1 (stereo not shown) [Compound 40, 1-(heptadecan-9-yl) 17-(undecan-3-yl) 9-(((tetrahydrofuran-3-yl)methyl)amino)heptadecanedioate]
% EE ([1]; Table 5): 97%
<d>N (nm) ([2]; Table 5): 53 nm
<d>Z (nm) ([2]; Table 5): 70 nm
Liver eGFP protein (ng/g tissue) ([3]; Table 5, 0.3 mg/kg): 3658.4 ng/g tissue

SMILES: CCCCCC(CCCCC)CCOC(=O)CCCCCCCCC(CCCCCCCCC(=O)OCCC(CCCCC)CCCCC)NC1CCOCC1 [Compound 15, bis(3-pentyloctyl) 10-((tetrahydro-2H-pyran-4-yl)amino)nonadecanedioate]
% EE ([1]; Table 4): 97%
<d>N (nm) ([2]; Table 4): 72 nm
<d>Z (nm) ([2]; Table 4): 89 nm
Liver eGFP protein (ng/g tissue) ([3]; Table 4, 0.3 mg/kg): 829.4 ng/g tissue

SMILES: CCCCCC(CCCCC)CCOC(=O)CCCCCCCCC(CCCCCCCCC(=O)OCCC(CCCCC)CCCCC)NC1CC2(COC2)C1 [Compound 14, bis(3-pentyloctyl) 10-((2-oxaspiro[3.3]heptan-6-yl)amino)nonadecanedioate]
% EE ([1]; Table 3): 95%
<d>N (nm) ([2]; Table 3): 61 nm
<d>Z (nm) ([2]; Table 3): 77 nm
Liver eGFP protein (ng/g tissue) ([3]; Table 3, 0.3 mg/kg): 8056.3 ng/g tissue

More lines, main results first:

% EE ([1]; Table 6): 94%
<d>N (nm) ([2]; Table 6): 55 nm
<d>Z (nm) ([2]; Table 6): 72 nm
SMILES: CCCCCC(CCCCC)CCOC(=O)CCCCCCCCCC(CCCCC(=O)OCCC(CCCCC)CCCCC)NC1CC2(COC2)C1 (stereo not shown) [Compound 49, bis(3-pentyloctyl) 6-((2-oxaspiro[3.3]heptan-6-yl)amino)hexadecanedioate]
Liver eGFP protein (ng/g tissue) ([3]; Table 6, 0.3 mg/kg): 3934.6 ng/g tissue

% EE ([1]; Table 6): 97%
<d>N (nm) ([2]; Table 6): 51 nm
<d>Z (nm) ([2]; Table 6): 65 nm
SMILES: CCCCCCCCC(CCC)OC(=O)CCCCCCCC(CCCCCCCC(=O)OC(CCCCCCCC)CCCCCCCC)NC1CC2(COC2)C1 (stereo not shown) [Compound 50, 1-(dodecan-4-yl) 17-(heptadecan-9-yl) 9-((2-oxaspiro[3.3]heptan-6-yl)amino)heptadecanedioate]
Liver eGFP protein (ng/g tissue) ([3]; Table 6, 0.3 mg/kg): 7410.4 ng/g tissue

% EE ([1]; Table 6): 95%
<d>N (nm) ([2]; Table 6): 62 nm
<d>Z (nm) ([2]; Table 6): 81 nm
SMILES: CCCCCCCCCC(=O)OCCCCCCCC(CCCCCCCC(=O)OC(CCCCCCCC)CCCCCCCC)NC1CC2(COC2)C1 (stereo not shown) [Compound 54, Heptadecan-9-yl 9-((2-oxaspiro[3.3]heptan-6-yl)amino)-16-(decanoyloxy)hexadecanoate]
Liver eGFP protein (ng/g tissue) ([3]; Table 6, 0.3 mg/kg): 10704.5 ng/g tissue

% EE ([1]; Table 5): 95%
<d>N (nm) ([2]; Table 5): 62 nm
<d>Z (nm) ([2]; Table 5): 79 nm
SMILES: CCCCCCCCC(CCCCCCCC)OC(=O)CCCCCCCC(CCCCCCCC(=O)OCCC(C)CCCCCC)NCC1CCOCC1 (stereo not shown) [Compound 43, 1-(heptadecan-9-yl) 17-(3-methylnonyl) 9-(((tetrahydro-2H-pyran-4-yl)methyl)amino)heptadecanedioate]
Liver eGFP protein (ng/g tissue) ([3]; Table 5, 0.3 mg/kg): 2590.9 ng/g tissue

% EE ([1]; Table 6): 96%
<d>N (nm) ([2]; Table 6): 50 nm
<d>Z (nm) ([2]; Table 6): 65 nm
SMILES: CCCCCCCCC(CCCCCCCC)OC(=O)CCCCCCCC(CCCCCCCC(=O)OC(C)(C)CCCCCCCC)NC1CC2(COC2)C1 (stereo not shown) [Compound 53, 1-(heptadecan-9-yl) 17-(2-methyldecan-2-yl) 9-((2-oxaspiro[3.3]heptan-6-yl)amino)heptadecanedioate]
Liver eGFP protein (ng/g tissue) ([3]; Table 6, 0.3 mg/kg): 6947.2 ng/g tissue

% EE ([1]; Table 6): 93%
<d>N (nm) ([2]; Table 6): 54 nm
<d>Z (nm) ([2]; Table 6): 73 nm
SMILES: CCCCCCCCC(CCCCCCCC)OC(=O)CCCCCCCC(CCCCCCCC(=O)OC(CC)CCCCC)NC1CC2(COC2)C1 (stereo not shown) [Compound 46, 1-(heptadecan-9-yl) 17-(octan-3-yl) 9-((2-oxaspiro[3.3]heptan-6-yl)amino)heptadecanedioate]
Liver eGFP protein (ng/g tissue) ([3]; Table 6, 0.3 mg/kg): 15932.1 ng/g tissue
